Source: patent US7883888B2, “Peptides selectively lethal to malignant and transformed mammalian cells” (The Research Foundation —The State University of New York, priority 2000, dated 2011)

Assays:
[1] = system: human cancer cells, including homozygously p53 gene-deleted; assay: toxicity of subject peptides to human cancer cells; assay type: cell-based
Protocol: The following experiment was performed to compare effectiveness of subject peptides having the leader sequence attached to the amino terminal end.

TUC-3 cells = assay: TUC-3 transformed pancreatic cancer cells in culture treated with synthetic peptide; assay type: cell-based, rat; settings: for EFFECT: Table 3, leader is SEQ ID NO:4
Description: (§1) A line of rat pancreatic acinar cells (BMRPA.430) grown in culture was transformed with K-ras.

[2] = system: non-malignant and non-transformed human breast cell lines; assay: non-malignant, non-transformed human breast cell lines treated with synthetic peptide; assay type: cell-based; settings: 100 μg/ml
[3] = system: non-malignant and non-transformed fibroblast cell lines; assay: non-malignant, non-transformed fibroblast cell lines treated with synthetic peptide; assay type: cell-based, human; settings: 100 μg/ml
BMRPA.430 cells = assay: normal pancreatic acinar cells BMRPA.430 in culture treated with synthetic peptide; assay type: cell-based, rat; settings: 50 μg/ml; normal cell line
Description: as §1

[4] = system: human breast carcinoma cell lines; assay: human breast carcinoma cell lines treated with synthetic peptide; assay type: cell-based; settings: 100 μg/ml
HeLa cells = HeLa cells treated with synthetic peptide; assay type: cell-based; settings: 100 μg/ml
Melanoma cells = Melanoma cells treated with synthetic peptide; assay type: cell-based; settings: 100 μg/ml
[5] = system: malignant or normal cells; assay: control peptide with leader on malignant or normal cells; assay type: cell-based; settings: leader SEQ ID NO:4 at carboxy terminal end of control peptide
Description: When the leader sequence set forth in SEQ ID NO:4 was positioned at the carboxy terminal end of PNC29, a control protein having the following amino acid sequence: [sequence]

[6] = system: pancreatic carcinoma cells BMRPA1. TUC-3; assay: s.c. BMRPA1.TUC-3 xenotransplant in Nu/Nu mice, established tumors, osmotic pump delivery (Example II); assay type: in vivo
Protocol: Nu/Nu mice (Harlan Laboratories, Indianapolis, Ind., n=10) and weighing 20-22 g, were xenotransplanted subcutaneously (s.c.) with live pancreatic carcinoma cells BMRPA1. TUC-3 (1×10^6 cells/mouse) in the left hind region.
Each group was implanted s.c. with Alzet® osmotic pumps to deliver in a constant rate and over a defined period of 14 days a total volume of 0.095 ml volume of normal saline containing the respective peptide at a concentration of 20 mg/mouse. […] The pumps were filled according to the manufacturers guidelines and under sterile conditions The pumps were implanted s.c. on the left flank of the anaesthetized mice by creating a pocket underneath the mouse skin into which the tiny pumps were inserted. Each pocket was closed with a simple suture. From their inside chamber the pumps delivered continuously 0.25 μl/hr into each mouse. The mice were observed until they had recovered from the surgery when they were returned to the isolation ward of the animal facility. Since the animals were Nu/Nu mice and, thus, immuno-compromised they are highly susceptible when exposed to pathogens. Surgery and all preceding and post-surgical treatments were therefore performed in a sterile hood environment.

cultured cancer cells = cultured cancer cells treated with peptide without leader or with leader alone; assay type: cell-based; settings: 100 μg/ml
Protocol: When cultured cancer cells were treated with a peptide with the primary structure of SEQ ID NO:1 without a leader sequence attached, at a dosage of 100 μg/ml, the cells were unaffected. Similarly, when cultured cancer cells were treated with leader sequence SEQ ID NO:4, the presently preferred leader sequence, at the same dosage, the cell were also unaffected.

With “PNC 21: p53 seq. 12-20 (PPLSQETFS) (SEQ ID NO: 2)-Leader; leader is KKWKMRRNQFWVKVQRG (SEQ ID NO:4) (PPLSQETFSKKWKMRRNQFWVKVQRG; amino acid residue 12-20 of human p53 protein; penetration leader sequence from antennapedia)” the “toxicity to a wide variety of human cancer cells” value [1] was “strongly toxic” and the EFFECT (TUC-3 cells) was “Cytotoxic”.
In the case of “PNC 27: p53 seq. 12-26 (PPLSQETFSDLWKLL) (SEQ ID NO: 1)-Leader; leader is KKWKMRRNQFWVKVQRG (SEQ ID NO:4) (PPLSQETFSDLWKLLKKWKMRRNQFWVKVQRG; amino acid residue 12-26 of human p53 protein; penetration leader sequence from antennapedia)”, the “effect on non-malignant and non-transformed human breast cell lines” value [2] is reported as “no effect”, the “toxicity to a wide variety of human cancer cells” value [1] is reported as “strongly toxic” and the “effect on non-malignant and non-transformed fibroblast cell lines” value [3] is reported as “no effect”. For the same substance, the “death of TUC-3 cells” value (TUC-3 cells; 100 μg/ml) was “died within three to four days”, the EFFECT (TUC-3 cells) was “Cytotoxic” and the “effect on BMRPA.430 cells” value (BMRPA.430 cells) was “not affected”. For the same substance, the “cell death in human breast carcinoma cell lines” value [4] was “cell death was observed”, the “cell death in HeLa cells” value (HeLa cells) was “cell death was observed” and the “cell death in Melanoma cells” value (Melanoma cells) was “cell death was observed”.
For “PNC-29: control peptide of similar size, amino acid sequence MPFSTGKRIMLGE (SEQ ID NO: 25); in b48 with leader SEQ ID NO:4 at carboxy end (used as a control)”, the “effect on malignant or normal cells” value [5] was “no effect”, the “effect on normal or tumor cells” value ([6]; control peptide, s.c. pump, 20 mg/mouse) was “no effect” and the tumor diameter ([6]; over the 2-week treatment and follow-up period) was 10 to 16 mm. The tumor growth ([6]; s.c. pump over 14 days, 20 mg/mouse, tumors 3 to 6 mm at start) was “kept growing at a continuous rate”.
“SEQ ID NO:1 without a leader sequence attached: peptide PPLSQETFSDLWKLL (SEQ ID NO:1) without a leader sequence attached (amino acid residue 12-26 of human p53 protein)” was tested, and the “effect on cultured cancer cells” value (cultured cancer cells) was “unaffected”.
For “SEQ ID NO:4: penetratin leader sequence from antennapedia protein alone, KKWKMRRNQFWVKVQRG (penetration leader sequence from antennapedia)”, the “effect on cultured cancer cells” value (cultured cancer cells) was “unaffected”.
